Measurements from article PMC12152147, “DDB1 engagement defines the selectivity of S656 analogs for cyclin K degradation over CDK inhibition” (EMBO Reports, 2025).
Where “and” joins values, the source holds several entries; their conditions need not be identical. Equal values may be shown once. Read-outs that look alike come from different tables or passages of the source.

Key:
OCI-AML5 cells = assay: Dose-response proliferative assay in OCI-AML5 (4 days, CellTiterGlo); type: cell-based, H. sapiens; settings: OCI-AML5 cells; read-out: IC50 in AML5
Procedure, shortened: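 Viability assessed after 4 days of compound exposure at 37 °C, 5% CO2. Compounds tested as 8 dilutions (1:4, 10 μM to 0.5 nM) on 300 OCI-AML5 cells/well grown in αMEM with 10% heat-inactivated FBS and 10 ng/mL GM-CSF.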

cyclin KeGFP = assay: Cyclin KeGFP reporter system (eGFP/mCherry MFI by flow cytometry);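 for % degradation cyclin K-eGFP: 10 μM compound for 3 h relative to DMSO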; type: cell-based, H. sapiens
Procedure, shortened: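 Degradation read as eGFP-to-mCherry MFI ratio relative to DMSO controls, from flow cytometry of the selected G7 clone of OCI-AML5 cells transduced with the cyclin KeGFP reporter.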

CDK9/CyclinT = target: T1, CDK9/CyclinT (Homo sapiens, UniProt P50750); assay: CDK9/CyclinT in vitro kinase activity, single concentration 1 μM; type: biochemical; settings: single concentration 1 μM
T1 construct: purchased BPS Bioscience 79628
Description: (§1) Kinase activity was assessed using the kinase assay kits from BPS Bioscience for CDK1, CDK9 and CDK12 with Kinase Glo MAX in duplicates. Compounds were tested at a single concentration of 1 μM for CDK1 and CDK9 activity, and in a dilution ranging from 0.64 nM to 50 μM for CDK12 activity. Chemiluminescence was read using the Neo Synergy BioTek plate reader.

CDK12/Cyclin K = target: T2, CDK12/Cyclin K (Homo sapiens, UniProt Q9NYV4); assay: CDK12/CyclinK in vitro kinase assay (BPS kit, Kinase Glo MAX); type: biochemical; settings: in % (unit assumed)
T2 construct: purchased BPS Bioscience 78298
Description: as §1

primary AML specimens = assay: Dose-response assays in primary AML specimens (6 days, CellTiterGlo); type: cell-based, human; settings: 6 days, read-out: IC50
Procedure, shortened: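 Primary AML cells in IMDM/15% BIT with SCF, FLT3L, IL3, G-CSF, SR1 and UM729 were exposed to 8-point 1:4 dilutions (10 μM to 0.5 nM) for 6 days. Viability came from CellTiterGlo luminescence, with % inhibition versus DMSO (0.1%) fitted by nonlinear regression.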

[1] = tested on: OCI-AML5 cells expressing shRNAs targeting CDK1, 2, 4, 7, 9, cyclin K; assay: Dose response in OCI-AML5 expressing shRNAs targeting CDK1, 2, 4, 7, 9, cyclin K or control; type: cell-based, H. sapiens; settings: for IC50: OCI-AML5, 4 days

T2 sequence (Q9NYV4 whole entry): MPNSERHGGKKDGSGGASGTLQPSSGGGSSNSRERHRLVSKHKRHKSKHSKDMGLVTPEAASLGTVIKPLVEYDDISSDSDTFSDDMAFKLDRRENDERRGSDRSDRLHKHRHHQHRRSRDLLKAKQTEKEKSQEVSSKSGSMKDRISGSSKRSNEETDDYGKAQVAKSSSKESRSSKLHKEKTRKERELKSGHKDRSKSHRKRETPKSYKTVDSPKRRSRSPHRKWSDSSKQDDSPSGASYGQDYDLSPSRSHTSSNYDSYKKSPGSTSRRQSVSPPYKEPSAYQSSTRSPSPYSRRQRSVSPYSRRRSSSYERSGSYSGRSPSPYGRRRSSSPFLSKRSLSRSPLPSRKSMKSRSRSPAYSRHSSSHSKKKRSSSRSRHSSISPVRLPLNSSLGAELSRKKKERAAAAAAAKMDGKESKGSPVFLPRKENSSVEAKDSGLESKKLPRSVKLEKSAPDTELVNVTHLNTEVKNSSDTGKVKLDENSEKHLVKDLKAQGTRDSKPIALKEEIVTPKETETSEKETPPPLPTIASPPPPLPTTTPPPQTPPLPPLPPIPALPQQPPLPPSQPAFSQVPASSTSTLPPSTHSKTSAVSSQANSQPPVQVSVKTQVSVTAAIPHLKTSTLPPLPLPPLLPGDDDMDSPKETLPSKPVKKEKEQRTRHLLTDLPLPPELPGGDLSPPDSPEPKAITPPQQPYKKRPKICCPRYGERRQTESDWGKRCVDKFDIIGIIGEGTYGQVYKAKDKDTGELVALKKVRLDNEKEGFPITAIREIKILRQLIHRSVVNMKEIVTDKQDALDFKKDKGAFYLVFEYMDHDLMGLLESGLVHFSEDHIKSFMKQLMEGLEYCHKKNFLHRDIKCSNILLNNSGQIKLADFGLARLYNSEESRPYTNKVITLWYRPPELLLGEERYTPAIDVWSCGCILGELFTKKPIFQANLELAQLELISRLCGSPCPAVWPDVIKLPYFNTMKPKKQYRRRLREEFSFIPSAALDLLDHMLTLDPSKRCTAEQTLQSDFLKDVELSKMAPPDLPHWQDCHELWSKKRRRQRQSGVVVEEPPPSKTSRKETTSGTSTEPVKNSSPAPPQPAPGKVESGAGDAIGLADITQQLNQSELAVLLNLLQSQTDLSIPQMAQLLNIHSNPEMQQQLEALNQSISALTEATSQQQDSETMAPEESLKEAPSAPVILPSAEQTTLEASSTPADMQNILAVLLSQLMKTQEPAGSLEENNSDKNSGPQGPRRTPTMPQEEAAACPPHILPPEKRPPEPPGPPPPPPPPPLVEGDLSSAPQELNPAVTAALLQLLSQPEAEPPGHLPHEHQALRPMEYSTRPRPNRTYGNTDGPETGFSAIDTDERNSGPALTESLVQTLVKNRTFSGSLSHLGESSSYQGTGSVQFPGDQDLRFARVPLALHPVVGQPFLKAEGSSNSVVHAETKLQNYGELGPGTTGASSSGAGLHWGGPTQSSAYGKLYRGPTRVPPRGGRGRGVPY
T2 sequence (O75909 whole entry partner): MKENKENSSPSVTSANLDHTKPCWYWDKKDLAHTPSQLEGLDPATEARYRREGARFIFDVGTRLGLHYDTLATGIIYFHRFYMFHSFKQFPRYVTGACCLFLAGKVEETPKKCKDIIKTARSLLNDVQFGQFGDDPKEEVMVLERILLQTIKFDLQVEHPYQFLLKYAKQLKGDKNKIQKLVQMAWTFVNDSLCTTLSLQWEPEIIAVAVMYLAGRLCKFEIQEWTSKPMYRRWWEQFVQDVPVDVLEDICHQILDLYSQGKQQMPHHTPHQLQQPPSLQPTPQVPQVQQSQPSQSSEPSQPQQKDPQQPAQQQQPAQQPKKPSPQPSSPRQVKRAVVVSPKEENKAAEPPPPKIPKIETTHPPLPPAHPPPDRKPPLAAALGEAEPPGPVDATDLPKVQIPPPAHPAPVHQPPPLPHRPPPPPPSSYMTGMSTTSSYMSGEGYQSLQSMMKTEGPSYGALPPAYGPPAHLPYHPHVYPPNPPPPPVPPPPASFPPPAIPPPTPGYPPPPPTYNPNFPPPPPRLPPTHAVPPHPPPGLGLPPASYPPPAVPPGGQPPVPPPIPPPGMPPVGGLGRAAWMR
T1 sequence (P50750 whole entry): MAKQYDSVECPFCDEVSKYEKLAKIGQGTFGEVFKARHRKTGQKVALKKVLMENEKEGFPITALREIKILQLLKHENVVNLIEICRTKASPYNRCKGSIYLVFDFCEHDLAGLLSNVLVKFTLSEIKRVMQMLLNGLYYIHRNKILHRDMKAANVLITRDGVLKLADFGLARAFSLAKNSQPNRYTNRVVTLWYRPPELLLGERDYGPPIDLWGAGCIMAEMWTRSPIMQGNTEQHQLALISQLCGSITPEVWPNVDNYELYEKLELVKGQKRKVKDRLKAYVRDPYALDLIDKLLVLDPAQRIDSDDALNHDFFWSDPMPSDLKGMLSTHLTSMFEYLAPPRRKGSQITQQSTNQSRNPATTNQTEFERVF
T1 sequence (O60563 whole entry partner): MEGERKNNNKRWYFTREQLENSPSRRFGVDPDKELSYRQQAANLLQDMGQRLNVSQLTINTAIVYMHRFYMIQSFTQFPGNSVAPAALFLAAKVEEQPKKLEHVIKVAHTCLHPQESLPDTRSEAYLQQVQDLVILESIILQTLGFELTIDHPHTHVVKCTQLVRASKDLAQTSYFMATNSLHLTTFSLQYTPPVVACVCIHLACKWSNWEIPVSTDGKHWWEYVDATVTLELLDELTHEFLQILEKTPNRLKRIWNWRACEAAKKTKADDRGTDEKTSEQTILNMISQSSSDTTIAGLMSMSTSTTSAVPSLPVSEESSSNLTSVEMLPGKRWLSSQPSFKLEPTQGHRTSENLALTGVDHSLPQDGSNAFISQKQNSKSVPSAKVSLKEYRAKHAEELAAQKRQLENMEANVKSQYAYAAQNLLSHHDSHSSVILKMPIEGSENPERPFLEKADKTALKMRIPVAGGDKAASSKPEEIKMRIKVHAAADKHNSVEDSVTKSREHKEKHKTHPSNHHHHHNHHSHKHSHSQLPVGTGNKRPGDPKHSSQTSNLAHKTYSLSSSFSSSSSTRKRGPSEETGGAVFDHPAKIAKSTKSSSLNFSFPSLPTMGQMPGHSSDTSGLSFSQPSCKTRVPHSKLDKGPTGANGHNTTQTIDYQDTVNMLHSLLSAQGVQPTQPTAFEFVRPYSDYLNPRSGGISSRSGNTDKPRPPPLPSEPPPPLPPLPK

CC[C@H](CO)Nc1nc(NCc2ccc(-c3ccccn3)cc2)c2ncn(C(C)C)c2n1 [CR8]
IC50 (OCI-AML5 cells): 56 nM | MFI of cyclin KeGFP over mCherry (cyclin KeGFP; OCI-AML5 G7 clone, 3 h, 10 μM, normalized to DMSO (=100)): 13.6 and 15.4 and 15.2 and 15.3 and 14.9 | % degradation cyclin K-eGFP (cyclin KeGFP; cyclin K-eGFP reporter): 86% | % CDK9 inhibition (CDK9/CyclinT): 100% | in vitro inhibition of CDK12/Cyclin K activity (CDK12/Cyclin K; Log10 (uM) 1): 58.77 and 64.89 and 109.89 | in vitro inhibition of CDK12/Cyclin K activity (CDK12/Cyclin K; Log10 (uM) 1.69897): 81.16 and 77.06 and 130.98 | in vitro inhibition of CDK12/Cyclin K activity (CDK12/Cyclin K; Log10 (uM) -0.39794): 16.88 and 18.59 and 15.49 | IC50 (primary AML specimens; primary AML specimen 03H109): 48.5 nM | IC50 (primary AML specimens; primary AML specimen 04H055): 123 nM | IC50 (primary AML specimens; primary AML specimen 04H096): 55 nM | IC50 (primary AML specimens; primary AML specimen 04H138): 127 nM | IC50 (primary AML specimens; primary AML specimen 05H113): 48.9 nM | IC50 (primary AML specimens; primary AML specimen 05H149): 66.3 nM | IC50 (primary AML specimens; primary AML specimen 05H193): 63.3 nM | IC50 (primary AML specimens; primary AML specimen 06H088): 74.7 nM | IC50 (primary AML specimens; primary AML specimen 06H117): 60.2 nM | IC50 (primary AML specimens; primary AML specimen 06H151): 43 nM | IC50 (primary AML specimens; primary AML specimen 07H003): 129 nM | IC50 (primary AML specimens; primary AML specimen 07H131): 154 nM | IC50 (primary AML specimens; primary AML specimen 07H144): 51.9 nM | IC50 (primary AML specimens; primary AML specimen 07H155): 144 nM | IC50 (primary AML specimens; primary AML specimen 08H018): 124 nM | IC50 (primary AML specimens; primary AML specimen 08H021): 53.6 nM | IC50 (primary AML specimens; primary AML specimen 08H056): 136 nM | IC50 (primary AML specimens; primary AML specimen 08H063): 149 nM | IC50 (primary AML specimens; primary AML specimen 08H085): 63.1 nM | IC50 (primary AML specimens; primary AML specimen 08H108): 126 nM | IC50 (primary AML specimens; primary AML specimen 08H118): 50.2 nM | IC50 (primary AML specimens; primary AML specimen 09H016): 51.5 nM | IC50 (primary AML specimens; primary AML specimen 09H070): 140 nM | IC50 (primary AML specimens; primary AML specimen 10H014): 38.9 nM | IC50 (primary AML specimens; primary AML specimen 10H046): 59.9 nM | IC50 (primary AML specimens; primary AML specimen 10H107): 76.8 nM | IC50 (primary AML specimens; primary AML specimen 10H127): 93.5 nM | IC50 (primary AML specimens; primary AML specimen 10H161): 75.2 nM | IC50 (primary AML specimens; primary AML specimen 10H174): 54.8 nM | IC50 (primary AML specimens; primary AML specimen 11H008): 85.8 nM | IC50 (primary AML specimens; primary AML specimen 11H019): 69.4 nM | IC50 (primary AML specimens; primary AML specimen 11H170): 162 nM | IC50 (primary AML specimens; primary AML specimen 11H217): 128 nM | IC50 (primary AML specimens; primary AML specimen 11H232): 70.1 nM | IC50 (primary AML specimens; primary AML specimen 12H033): 107 nM | IC50 (primary AML specimens; primary AML specimen 12H055): 100 nM | IC50 (primary AML specimens; primary AML specimen 12H148): 74.2 nM | IC50 (primary AML specimens; primary AML specimen 13H053): 133 nM | IC50 (primary AML specimens; primary AML specimen 15H045): 43.7 nM | IC50 (primary AML specimens; primary AML specimen 17H065): 92.3 nM | IC50 ([1]; read-out: IC50, sh CDK1): 69.6 nM and 111 nM and 91.9 nM | IC50 ([1]; read-out: IC50, sh CDK2): 67.6 nM and 80.5 nM and 96.4 nM | IC50 ([1]; read-out: IC50, sh CDK4): 61.8 nM and 75.2 nM and 63.5 nM | IC50 ([1]; read-out: IC50, sh CDK7): 61.1 nM and 84.1 nM and 69.1 nM | IC50 ([1]; read-out: IC50, sh CDK9): 55.2 nM and 60.8 nM and 44.9 nM | IC50 ([1]; read-out: IC50, sh Cyclin K): 13.1 nM and 15.5 nM and 20.6 nM | IC50 ([1]; read-out: IC50, sh ctrl): 55.8 nM and 70.4 nM and 56.2 nM | Class ([1]; class from shRNA IC50 profile and cyclin K-eGFP degradation): 1
